Test results published in US20260207769A1, “ANTIBODY DRUG CONJUGATES” (YALE UNIVERSITY, priority 2022, published 2026).

Key:
[1] = test system: PEO-4 (WT) ovarian adenocarcinoma cells; experiment: Cell viability of PEO-4 cells; format: cell-based; details: PEO-4 (WT) cells, at 7 days
Description: (§1) Cancer cell lines were acquired from ATCC and cultured according to well known methods in the art. Treatment with cytotoxic agents, antibodies, or ADCs refers to the addition of the cytotoxic agent, antibody or ADC (i.e., DM1 or cD31N-DM1, etc.) to the culture media for a set duration.
The effects of longer-term treatment with SN38 and cD31N-SN38 on PEO-4 (WT) and PEO-1 (BRCA2^−/−) ovarian cancer cells were investigated.

[2] = test system: DNA damage response proteins; experiment: Western blot of DNA damage response proteins in SKOV3 cells; format: cell-based; details: 100 nM, 24, 48 and 72 hours
Description: SKOV3 ovarian cancer cells were treated with 100 nM of SN38, cD31N antibody, or cD31N-SN38 as indicated and collected at 24, 48, and 72 hours of treatment for Western blot analysis to measure specific protein markers of DNA damage response as previously described. […] In particular, 7H2AX levels increased over time.

[3] = test system: DNA damage response proteins; experiment: Western blot of DNA damage response proteins in PEO-4 cells; format: cell-based; details: 100 nM, 24 and 48 hours
Description: PEO-4 (WT) and PEO-1 (BRCA2^−/−) ovarian cancer cells were treated with 100 nM of SN38, cD31N or cD31N-SN38 and collected at 24 and 48 hours of treatment for Western blot analysis to measure specific protein markers of DNA damage response as previously described.

HCT116-IDH1^mut cells = experiment: Clonogenic assay in HCT116-IDH1mut cells; format: cell-based; details: after 10 days
Description: Clonogenic or colony formation assays are in vitro assays that can measure the survival or growth of cells on a single-cell level based on the ability of a single cell to grow into a colony. WT or BRCA2^−/− DLD-1 cells were plated with different concentrations of SN38, 3E10 antibody, or 3E10-SN38 conjugate added into the clonogenic assay media. After 7 days for WT cells or 10 days for BRCA2^−/− cells, colony numbers were counted to quantify DLD-1 cell survival. […] Consistent with earlier results, DLD-1 cell survival was concentration-dependent.
The effects of treatment with SN38 or 3E10-SN38 conjugates on HCT116 cells were tested in clonogenic assays as previously described. WT and IDH1^mut HCT116 cells were treated with SN38, cD31N antibody, or cD31N-SN38 conjugate. Cell survival of WT (FIG. 25A) and IDH1^mut HCT116 cells (FIG. 25B) was quantified after 7 days for WT cells or 10 days for […].

[4] = test system: DNA damage response proteins such as γH2AX, p-ATM, and p-ATR; experiment: Western blot of DNA damage response proteins in WT HCT116 cells; format: cell-based; details: WT HCT116, 100 nM, 24 hours
Description: DNA damage induced by SN38 or the humanized 3E10-SN38 conjugates in WT and IDH1^mut HCT116 cells was assessed by measuring the levels of proteins involved in DNA damage response, p-ATM, p-ATR, pChk2, pChk1, 7H2AX and H2AX. HCT116 cells were treated with 100 nM of SN38, V66 antibody, or V66-SN38 conjugate and collected for Western blot after 24 hours and the results are shown in FIG. 26. No treatment (NT) was used as control.

DLD-1 cells = experiment: treatment duration, single dose of SN38 or 3E10-SN38 conjugates, cancer cell growth (Example 7); format: cell-based; details: effects dose dependent
Description: FIGS. 14, 15, and 16 show the cell viability of WT and BRCA2^−/− DLD-1 cells after treatment with SN38, cWT-SN38 or cD31N-SN38 at 3, 5, and 7 days post-treatment, respectively.
FIGS. 14A, 15A, and 16A show the viability of WT DLD-1 cells and FIGS. 14B, 15B, and 16B show the viability of BRCA2^−/−- DLD-1 cells. The calculated EC50 values are provided.
FIGS. 17 and 18 show the effects of shorter and longer term treatment on cell viability in WT DLD-1 cells (FIGS. 17A and 17B) and BRCA2^−/−- DLD-1 cells (FIGS. 18A and 18B) at day 7 after treatment with SN38 or cD31N-SN38 conjugate. Shorter term treatment was defined as a 24 hour treatment followed by a change to fresh treatment-free media. Longer term treatment was defined as 7 days of treatment without a change of medium. The calculated EC50 values are provided.

[5] = test system: HCT116 colorectal cancer cells; experiment: Cell viability of WT HCT116 cells; format: cell-based
Description: WT and mutant IDH1 (IDH1^mut) HCT116 cells were treated with different concentrations of SN38, cD31N antibody, or cD31N-SN38 conjugate. The effects of 3E10-cD31N-SN38 conjugate treatment on HCT116 WT and HCT116IDH1^mut were investigated.

[6] = test system: BRCA2^−/− DLD-1 colorectal adenocarcinoma cells; experiment: Cell viability assay in BRCA2-/- DLD-1 cells; format: cell-based, human; details: BRCA^−/− DLD-1 cells
Description: as §1
BRCA2 deficient (BRCA2′) cells are more sensitive to DM1 because BRCA2 participates in DNA double-stranded break (DSB) repair.

[7] = test system: DNA damage response proteins such as γH2AX, p-ATM, and p-ATR; experiment: Western blot of DNA damage response proteins in WT DLD-1 cells; format: cell-based, human
Description: SN38 causes DNA damage via inhibition of topoisomerase I. Therefore, DNA damage was measured in both wild-type (WT) and BRCA2 deficient (BRCA2′) DLD-1 cells by induction of γH2AX after treatment with one of the following: no treatment (NT), SN38 alone (SN38), wild-type 3E10 antibody alone (cWT), 3E10-cD31N antibody alone, cWT-SN38 conjugate, or cD31N-SN38 conjugate. After treatment with 100 nM of the antibody or conjugate for 48 hours, the DLD-1 cells were collected for Western blot analysis to measure 7H2AX protein levels. […] These findings were consistent in both WT and BRCA2^−/− DLD-1 cells, but γH2AX protein levels were elevated across all groups in BRCA2^−/− DLD-1 cells.
DNA damage caused by SN38 or 3E10-SN38 conjugates in WT and BRCA2^−/− DLD-1 cells was assessed by measuring the levels of proteins involved in DNA damage response, p-ATM, p-ATR, pBRCA1, Topoisomerase 1 (TOPO-1), pChk2, pChk1, γH2AX and H2AX. DLD-1 cells were treated with 100 nM of SN38, cWT antibody, cD31N antibody, cWT-SN38 conjugate, or cD31N-SN38 conjugate and collected for Western blot after 24 (FIG. 21A) and 48 hours (FIG. 21B). No treatment (NT) was used as control.

Question: Which results are given for CCc1c2c(nc3ccc(O)cc13)-c1cc3c(c(=O)n1C2)COC(=O)[C@]3(O)CC [SN38, SN-38]?
Answer: cell viability [1]: reduced cell viability in a concentration-dependent manner resulting in low EC50 values; protein expression of DNA damage response proteins [2]: protein expression of DNA damage response proteins was increased; protein expression of DNA damage response proteins [3]: protein expression of DNA damage response proteins was increased; cell survival (clonogenic) (HCT116-IDH1^mut cells): low levels of cell survival; protein levels of DNA damage response proteins [4]: increased the protein levels of DNA damage response proteins such as γH2AX, p-ATM, and p-ATR; long-term effects on cancer cell growth (DLD-1 cells): can have long-term effects on cancer cell growth; cell viability ([5]; 5 days of treatment): substantial loss in cell viability; cell viability ([5]; 7 days of treatment): substantial loss in cell viability; EC50 [6]: 0.65 nM; protein levels of DNA damage response proteins ([7]; WT DLD-1, 100 nM, 24 and 48 hour time points): increased the protein levels of DNA damage response proteins such as γH2AX, p-ATM, and p-ATR; TOPO-1 levels ([7]; WT DLD-1, 100 nM, 24 and 48 hours): reduced TOPO-1 levels; γH2AX induction (Western blot) ([7]; WT DLD-1, 100 nM, 24 hours (Example 10)): 7H2AX was induced; γH2AX detection (Western blot) ([7]; WT DLD-1, 100 nM, 48 hours (Example 10)): 7H2AX was detected; γH2AX protein levels (Western blot) ([7]; WT DLD-1 cells, 100 nM, 48 hours (Example 5)): induced the highest levels of γH2AX expression
